Data from patent US8501953B2, “PKM2 modulators for use in the treatment of cancer” (Agios Pharmaceuticals, Inc, priority 2009, dated 2013).

Target: PKM2 (Homo sapiens, UniProt P14618)
Test: PKM2 Assay (activation; LDH-coupled, NADH absorbance at 340 nm)
Format: biochemical
Settings: PKM2 50 ng/well, ADP 0.7 mM, PEP 0.15 mM, no FBP in Reaction Mix
Protocol: • PKM2 stock enzyme solution was diluted in Reaction Buffer • 2 μL of compound was added into each well first, and then 180 μL of the Reaction Mix was added. • Reaction mixture with compound (without ADP) were incubated for 30 minutes at 4° C. • Plates were re-equilibrated to room temperature prior to adding 20 μL ADP to initiate the reaction. • Reaction progress was measured as changes in absorbance at 340 nm wavelength at room temperature (25° C.) Reaction Mix: PKM2 (50 ng/well), ADP (0.7 mM), PEP (0.15 mM), NADH (180 μM), LDH (2 units) in Reaction Buffer Reaction Buffer: 100 mM KCl, 50 mM Tris pH 7.5, 5 mM MgCl2, 1 mM DTT, 0.03% BSA.

PKM2, sequence (P14618 whole entry): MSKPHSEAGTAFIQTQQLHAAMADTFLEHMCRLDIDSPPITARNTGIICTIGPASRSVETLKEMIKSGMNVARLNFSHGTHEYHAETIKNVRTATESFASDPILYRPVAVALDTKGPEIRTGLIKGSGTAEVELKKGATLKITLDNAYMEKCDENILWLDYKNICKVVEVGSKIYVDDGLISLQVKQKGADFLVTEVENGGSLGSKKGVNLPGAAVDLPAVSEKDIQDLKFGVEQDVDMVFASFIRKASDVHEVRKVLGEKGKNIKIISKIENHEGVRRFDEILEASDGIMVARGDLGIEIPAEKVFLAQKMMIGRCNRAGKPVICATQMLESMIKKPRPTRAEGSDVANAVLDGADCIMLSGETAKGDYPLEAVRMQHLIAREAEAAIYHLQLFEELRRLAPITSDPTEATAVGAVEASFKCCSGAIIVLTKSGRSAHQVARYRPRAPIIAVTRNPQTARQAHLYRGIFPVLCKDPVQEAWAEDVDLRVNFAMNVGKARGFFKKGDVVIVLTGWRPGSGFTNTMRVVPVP

For `COc1ccc(Cl)cc1S(=O)(=O)Nc1ccc2c(c1)sc(=O)n2C`, which AC50 is on record?
Its AC50 is 10 to 50 µM.

Which AC50 does the source give for `CCn1c(=O)oc2cc(S(=O)(=O)Nc3ccc(F)cc3)c(C)cc21` here?
Its AC50 is 10 to 50 µM.

For `CCn1c(=O)oc2ccc(NS(=O)(=O)c3cccs3)cc21`, which AC50 is on record?
Its AC50 is greater than 100 µM.

`Cc1cc2c(cc1S(=O)(=O)Nc1ccc(F)cc1)oc(=O)n2C` was tested. Which AC50 did it give?
The AC50 was 1 to 10 µM.

With `COc1ccc(Cl)cc1S(=O)(=O)Nc1cc2c(cc1Cl)oc(=O)n2C` as the molecule, how does the AC50 read?
The AC50 was 1 to 10 µM.

With `CCn1c(=O)oc2cc(S(=O)(=O)Nc3ccccc3Cl)c(C)cc21` as the molecule, how does the AC50 read?
The AC50 was 1 to 10 µM.

For `CCn1c(=O)oc2cc(S(=O)(=O)Nc3ccccc3Cl)ccc21`, which AC50 is on record?
The AC50 was 1 to 10 µM.

How did the AC50 turn out when `O=c1[nH]c2cc(NS(=O)(=O)c3cccc(Cl)c3)c(Cl)cc2o1` was run?
Its AC50 is 10 to 50 µM.

How did the AC50 turn out when `Cn1c(=O)oc2cc(Cl)c(S(=O)(=O)Nc3ccc(F)cc3)cc21` was run?
The AC50 was 1 to 10 µM.

For `CC(=O)c1ccc(S(=O)(=O)Nc2cc3c(cc2C)oc(=O)n3C)cc1`, which AC50 is on record?
Its AC50 is 10 to 50 µM.

Which AC50 does the source give for `CCn1c(=O)oc2cc(C)c(S(=O)(=O)Nc3cc(Cl)ccc3OC)cc21` here?
Its AC50 is 10 to 50 µM.

How did the AC50 turn out when `Cn1c(=O)oc2cc(Cl)c(NS(=O)(=O)c3cccc(Cl)c3)cc21` was run?
Its AC50 is 10 to 50 µM.

`CCn1c(=O)oc2cc(Cl)c(S(=O)(=O)Nc3ccc(F)cc3)cc21` was tested. Which AC50 did it give?
Its AC50 is 10 to 50 µM.

How did the AC50 turn out when `Cc1cc2oc(=O)n(C)c2cc1NS(=O)(=O)c1ccc(F)cc1` was run?
The AC50 was 10 to 50 µM.

For `COc1ccc(Cl)cc1NS(=O)(=O)c1cc2c(cc1C)oc(=O)n2C`, which AC50 is on record?
Its AC50 is 1 to 10 µM.

`COc1ccc(Cl)cc1S(=O)(=O)Nc1ccc2oc(=O)[nH]c2c1` was tested. Which AC50 did it give?
The AC50 was 10 to 50 µM.

`Cc1cc2oc(=O)n(C)c2cc1S(=O)(=O)Nc1c(F)cccc1F` was tested. Which AC50 did it give?
The AC50 was greater than 100 µM.

How did the AC50 turn out when `COc1ccc(C)cc1S(=O)(=O)Nc1cc2[nH]c(=O)oc2cc1C` was run?
Its AC50 is 10 to 50 µM.

For `Cc1cc(C)cc(NS(=O)(=O)c2cc3c(cc2Cl)oc(=O)n3C)c1`, which AC50 is on record?
Its AC50 is less than 1 µM.

Which AC50 does the source give for `CCn1c(=O)oc2cc(C)c(NS(=O)(=O)c3cc(Cl)ccc3OC)cc21` here?
The AC50 was 10 to 50 µM.

Which AC50 does the source give for `Cc1cc2oc(=O)n(C)c2cc1S(=O)(=O)Nc1ccc(Cl)cc1` here?
Its AC50 is less than 1 µM.

For `Cn1c(=O)oc2cc(F)c(NS(=O)(=O)c3cccs3)cc21`, which AC50 is on record?
The AC50 was greater than 100 µM.

For `CCn1c(=O)oc2cc(Cl)c(S(=O)(=O)Nc3ccc(Cl)cc3)cc21`, which AC50 is on record?
The AC50 was 1 to 10 µM.

Which AC50 does the source give for `Cn1c(=O)oc2cc(F)c(S(=O)(=O)Nc3ccc(Cl)cc3)cc21` here?
Its AC50 is 1 to 10 µM.

How did the AC50 turn out when `Cc1cc2oc(=O)n(C)c2cc1NS(=O)(=O)c1ccccc1C` was run?
Its AC50 is 1 to 10 µM.

Which AC50 does the source give for `CCn1c(=O)oc2cc(C)c(S(=O)(=O)Nc3ccccc3Cl)cc21` here?
The AC50 was 10 to 50 µM.

Which AC50 does the source give for `COc1ccc(C)cc1S(=O)(=O)Nc1cc2c(cc1Cl)oc(=O)n2C` here?
The AC50 was 1 to 10 µM.

`Cc1cc2oc(=O)n(C)c2cc1S(=O)(=O)Nc1ccccc1F` was tested. Which AC50 did it give?
Its AC50 is 1 to 10 µM.

For `Cc1cc2oc(=O)n(C)c2cc1NS(=O)(=O)c1cccc(Cl)c1`, which AC50 is on record?
The AC50 was 10 to 50 µM.

For `COc1ccc(Cl)cc1NS(=O)(=O)c1cc2c(cc1Cl)oc(=O)n2C`, which AC50 is on record?
The AC50 was 1 to 10 µM.

`COc1ccc(C)cc1S(=O)(=O)Nc1ccc2oc(=O)[nH]c2c1` was tested. Which AC50 did it give?
The AC50 was 10 to 50 µM.

`Cn1c(=O)oc2cc(Cl)c(S(=O)(=O)Nc3ccc(Cl)cc3)cc21` was tested. Which AC50 did it give?
The AC50 was 10 to 50 µM.

Which AC50 does the source give for `O=c1sc2ccc(S(=O)(=O)Nc3ccc(F)cc3)cc2s1` here?
The AC50 was 10 to 50 µM.

For `Cn1c(=O)oc2cc(F)c(NS(=O)(=O)c3c(F)cccc3F)cc21`, which AC50 is on record?
Its AC50 is greater than 100 µM.

For `Cc1cc2sc(=O)sc2cc1S(=O)(=O)Nc1ccccc1`, which AC50 is on record?
The AC50 was less than 1 µM.

How did the AC50 turn out when `Cc1cc2sc(=O)sc2cc1S(=O)(=O)Nc1ncc(C(F)(F)F)cc1Cl` was run?
The AC50 was 1 to 10 µM.

With `O=c1sc2ccc(S(=O)(=O)Nc3ccc(Cl)cc3)cc2s1` as the molecule, how does the AC50 read?
Its AC50 is 1 to 10 µM.

For `Cc1cc2oc(=O)n(C)c2cc1NS(=O)(=O)c1cc(Cl)ccc1Cl`, which AC50 is on record?
Its AC50 is 10 to 50 µM.

For `Cc1cc2sc(=O)sc2cc1S(=O)(=O)NC1CCCCC1`, which AC50 is on record?
Its AC50 is 10 to 50 µM.

For `COc1ccc(Cl)cc1NS(=O)(=O)c1ccc2sc(=O)sc2c1`, which AC50 is on record?
Its AC50 is 10 to 50 µM.

For `Cn1c(=O)sc2ccc(NS(=O)(=O)c3c(F)cccc3F)cc21`, which AC50 is on record?
Its AC50 is 1 to 10 µM.

With `Cc1cc2sc(=O)sc2cc1S(=O)(=O)Nc1ccc(F)cc1` as the molecule, how does the AC50 read?
The AC50 was 1 to 10 µM.

For `O=c1[nH]c2cc(NS(=O)(=O)c3c(F)cccc3F)ccc2s1`, which AC50 is on record?
Its AC50 is 10 to 50 µM.

For `Cc1cc2sc(=O)sc2cc1S(=O)(=O)Nc1ccccc1F`, which AC50 is on record?
Its AC50 is 10 to 50 µM.

Which AC50 does the source give for `CCn1c(=O)sc2ccc(NS(=O)(=O)c3cccs3)cc21` here?
The AC50 was 10 to 50 µM.

`Cc1cc2sc(=O)sc2cc1S(=O)(=O)Nc1ccccc1Cl` was tested. Which AC50 did it give?
The AC50 was 1 to 10 µM.

Which AC50 does the source give for `O=c1[nH]c2cc(NS(=O)(=O)c3ccccc3)ccc2s1` here?
Its AC50 is 10 to 50 µM.

With `COc1ccc(Cl)cc1NS(=O)(=O)c1cc2sc(=O)sc2cc1C` as the molecule, how does the AC50 read?
The AC50 was 1 to 10 µM.

`CCn1c(=O)sc2ccc(NS(=O)(=O)c3cc(Cl)ccc3OC)cc21` was tested. Which AC50 did it give?
The AC50 was 1 to 10 µM.

For `Cc1cc2sc(=O)sc2cc1S(=O)(=O)Nc1ccc(Cl)cc1`, which AC50 is on record?
The AC50 was 1 to 10 µM.

For `COc1ccc(Cl)cc1S(=O)(=O)Nc1ccc2sc(=O)[nH]c2c1`, which AC50 is on record?
The AC50 was 1 to 10 µM.

Which AC50 does the source give for `Cc1cc2oc(=O)sc2cc1NS(=O)(=O)c1cccs1` here?
Its AC50 is 10 to 50 µM.
